In data set [1] the test system is rats. Put plainly: Sodium iodoacetate-induced knee joint osteoarthritic pain model (hind limb grip force). Format: in vivo. The settings on record: rat, po, single acute dose, 1 hour after administration, 20 days after sodium iodoacetate, read-out: % effect (% return to normalcy of hind limb grip force). Here is the method: Unilateral knee joint osteoarthritis was induced in the rats by a single intra-articular (i.a.) injection of sodium iodoacetate (3 mg in 0.05 mL sterile isotonic saline) into the right knee joint cavity under light isoflurane anesthesia using a 26 G needle. […] Pain behavioral assessment of hind limb grip force was conducted by recording the maximum compressive force exerted on the hind limb strain gauge setup, in a commercially available grip force measurement system (Columbus Instruments, Columbus, Ohio). The grip force data was converted to a maximum hindlimb cumulative compressive force (CFmax) (gram force)/kg body weight for each animal. The analgesic effects of test compounds were determined 20 days following the i.a. injection of sodium iodoacetate. The vehicle control group for each compound being tested was assigned 0% whereas the age matched naïve group was assigned as being 100% (normal). The % effect for each dose group was then expressed as % return to normalcy compared to the naïve group. Test compounds were administered orally in 10% ethanol/20% Tween 80/70% polyethylene glycol-400 vehicle at a volume of 2 mL/kg. The assessment of the analgesic effects of test compounds was made 1 hour following oral administration. The assessment of the analgesic effects of test compounds can be made following a single dose or following repeated administration wherein the frequency of dosing is 1 to 2 times daily. The duration of such repeated daily dosing may last for any time greater than one day. A typical duration of repeated daily dosing is about 5 days to about 12 days.

In data set [2] the target is T1, human TRPV1 (Homo sapiens (Human), UniProt Q8NER1). As to the kind of experiment: Acid Activation Assay (pH 5.0, intracellular Ca2+, FLIPR). Format: cell-based. The settings on record: percentage of the maximal pH 5.0-induced response remaining; recombinant HEK293 hTRPV1 cells; maximum concentration tested 37.5 μM. The gist of the method:
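Readout: peak [Ca2+]i fluorescence over baseline on FLIPR, expressed as percentage remaining of the maximal pH 5.0-evoked signal. Stable hTRPV1-HEK293 cells with Calcium-4 dye received compound (12 half-log concentrations, maximum 37.5 μM) 3 min before acidic pH 5.0 buffer.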

Data set [3] has as its target T1, human TRPV1. Put plainly: Capsaicin Activation Assay (intracellular Ca2+, FLIPR). Format: cell-based. The settings on record: recombinant HEK293 cells expressing hTRPV1, 50 nM capsaicin. The gist of the method: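 Ca2+ fluorescence was recorded by FLIPR every 1 to 5 seconds in HEK293 cells, clonally selected for stable human TRPV1 expression and plated one day ahead. Test compounds came as serial dilutions of 10 mM DMSO stocks.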

Data set [4] relates to rats. Put plainly: Rat acute capsaicin-induced flinching behavior. Format: in vivo. The settings on record: 1 h, oral dose given as 100 nmol/kg, capsaicin 2.5 μg into hind paw one hour after compound, five minute observation, relative to control-treated animals, read-out: % effect (percent reduction in the number of flinching behaviors). The protocol:
Rats were placed in individual observation cages. Following an acclimation period of 30 minutes, selected compounds were administered orally at a dose of 100 nmol/kg in a vehicle (10% ethanol/20% Tween 80/70% polyethylene glycol-400) at a volume of 2 mL/kg. One hour after administration of the compound, 2.5 μg of capsaicin in a 10 μL solution of 10% ethanol/90% hydroxypropyl-β-cyclodextrin was injected subcutaneously into the dorsal aspect of the right hind paw. The observation cage was then suspended above mirrors in order to facilitate observation. […] The number of flinching behaviors of the injured paw was recorded during the five minute observation period (Gilchrist, H. D.; Allard, B. L.; Simone, D. A.; Enhanced withdrawal responses to heat and mechanical stimuli following intraplantar injection of capsaicin in rats. Pain, 1996, 67, 179-188). The percent reduction in the number of flinching behaviors produced from oral administration of the test compounds relative to control-treated animals (% effect) is reported in Table 2.

In data set [5] the test system is rats. Put plainly: Rat tail immersion assay of noxious thermosensation. The conditions noted are these: morphine 6 mg/kg i.p. in saline, 55° C. water bath, relative to vehicle control. The class given is in vivo. Here is the method:
Compounds were tested for their effects on noxious thermosensation using the tail immersion assay. Testing was performed one hour following oral administration of 100 μmol/kg of the compound in 10% ethanol/20% Tween-80/70% PEG-400 (2 mL/kg). Mophine (6 mg/kg) was administered interperitoneally (i.p.) using saline (2 mL/kg) as the vehicle. For testing, a circulating water bath was heated to 55° C. Thirty to sixty minutes post dosing, the rats were handled for a few seconds to calm them down and then cupped with their back against the testers hand at a slight angle with head facing away from tester. With rat in one hand and a 0.01 second stopwatch in the other hand, the tail was quickly immersed 6-8 cm in water bath or to a distance leaving 2-3 cm of tail out of water. The timer was started simultaneously. When the rat flinched or attempted withdrawal, timer was immediately stopped and the rat's tail was quickly removed from water bath. This response latency (in seconds) was recorded. Process was repeated 3 times with 3-4 minutes between readings for a final average.
For a given compound, a percent increase in the average response latency (in seconds) for tail withdrawal relative to a vehicle control was determined % increase=[(tc−tv)/tv]×100% […]
Table 1 reports the % increase in tail withdrawal latency measured for the compounds tested. […]

Molecules are shown by their SMILES.

T1 sequence (Q8NER1 whole entry): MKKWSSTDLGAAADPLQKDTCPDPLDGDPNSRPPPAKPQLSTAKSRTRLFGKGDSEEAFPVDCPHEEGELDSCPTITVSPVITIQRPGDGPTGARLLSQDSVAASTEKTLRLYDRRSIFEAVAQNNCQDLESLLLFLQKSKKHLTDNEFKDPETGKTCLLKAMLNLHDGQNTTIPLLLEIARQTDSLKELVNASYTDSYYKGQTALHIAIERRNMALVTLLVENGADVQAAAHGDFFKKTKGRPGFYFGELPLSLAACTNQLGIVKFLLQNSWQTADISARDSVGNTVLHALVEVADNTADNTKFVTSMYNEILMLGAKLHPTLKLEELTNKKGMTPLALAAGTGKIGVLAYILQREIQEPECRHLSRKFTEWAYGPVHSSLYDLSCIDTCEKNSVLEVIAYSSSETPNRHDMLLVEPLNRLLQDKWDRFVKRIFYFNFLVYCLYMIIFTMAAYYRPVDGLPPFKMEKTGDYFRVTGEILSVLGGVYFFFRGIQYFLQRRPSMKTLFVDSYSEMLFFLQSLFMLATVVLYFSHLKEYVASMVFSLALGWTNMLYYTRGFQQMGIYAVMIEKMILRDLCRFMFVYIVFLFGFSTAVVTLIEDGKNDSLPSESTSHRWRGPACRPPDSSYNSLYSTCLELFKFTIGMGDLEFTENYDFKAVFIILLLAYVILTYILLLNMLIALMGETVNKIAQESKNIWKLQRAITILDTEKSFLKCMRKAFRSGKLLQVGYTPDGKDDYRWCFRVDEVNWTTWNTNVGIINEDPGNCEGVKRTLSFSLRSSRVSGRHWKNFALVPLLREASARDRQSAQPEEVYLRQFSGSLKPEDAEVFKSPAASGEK

With `CN1C(=O)CCc2ccc(NC(=O)N[C@@H]3CCOc4cc(C(F)(F)F)ccc43)cc21` [Example 37, 1-(1-methyl-2-oxo-1,2,3,4-tetrahydroquinolin-7-yl)-3-[(4R)-7-(trifluoromethyl)-3,4-dihydro-2H-chromen-4-yl]urea], the inhibition in vivo at 13 mg/kg in data set [1] came to 43%. Also, the “human TRPV1 H^+ (max % remain)” value in data set [2] is reported as 60%. The IC50 in data set [3] was found to be 50 nM. In data set [4], the inhibition in vivo at 0.1 µmol/kg came to 78%.

For `CN1CC[C@]23c4c5ccc(O)c4O[C@H]2[C@@H](O)C=C[C@H]3[C@H]1C5` [Morphine, morphine], the “% Increase in tail withdrawal latency” value in data set [5] is recorded as “+++ (greater than or equal to 25% increase)”.

Regarding `CC1(C)C[C@@H](NC(=O)Nc2ccc3c(c2)NC(=O)CO3)c2ccc(F)cc2O1` [Example 38, 1-[(4R)-7-fluoro-2,2-dimethyl-3,4-dihydro-2H-chromen-4-yl]-3-(3-oxo-3,4-dihydro-2H-1,4-benzoxazin-6-yl)urea], in data set [1], the inhibition in vivo at 10 mg/kg came to 63%. Further, in data set [2], the “human TRPV1 H^+ (max % remain)” value amounted to 92%. The IC50 in data set [3] is 56 nM. The inhibition in vivo at 0.1 µmol/kg in data set [4] amounted to 69%.

With `CN1Cc2ccc(NC(=O)N[C@@H]3C[C@](C)(C(F)(F)F)Oc4ccccc43)cc2NC1=O` [Example 18, 1-(3-methyl-2-oxo-1,2,3,4-tetrahydroquinazolin-7-yl)-3-[(2R,4R)-2-methyl-2-(trifluoromethyl)-3,4-dihydro-2H-chromen-4-yl]urea], the inhibition in vivo at 13 mg/kg in data set [1] worked out at 62%. The “human TRPV1 H^+ (max % remain)” value in data set [2] came out at 51%. Further, in data set [3], the IC50 worked out at 48 nM. Also, in data set [4], the inhibition in vivo at 0.1 µmol/kg was 64%.

For `CC1(C)C[C@@H](NC(=O)Nc2ccc3c(c2)NC(=O)CC3)c2ccc(F)c(F)c2O1` [Example 33, 1-[(4R)-7,8-difluoro-2,2-dimethyl-3,4-dihydro-2H-chromen-4-yl]-3-(2-oxo-1,2,3,4-tetrahydroquinolin-7-yl)urea], in data set [1], the inhibition in vivo at 10 mg/kg came out at 37%. Besides, the “human TRPV1 H^+ (max % remain)” value in data set [2] was 42%. The IC50 in data set [3] was found to be 20 nM. In addition, the inhibition in vivo at 0.1 µmol/kg in data set [4] is 59%.

As to `CN1Cc2ccc(NC(=O)N[C@@H]3CCc4cc(Cl)ccc43)cc2NC1=O` [Example 17, 1-[(1R)-5-chloro-2,3-dihydro-1H-inden-1-yl]-3-(3-methyl-2-oxo-1,2,3,4-tetrahydroquinazolin-7-yl)urea], the “human TRPV1 H^+ (max % remain)” value in data set [2] worked out at 54%. In data set [3], the IC50 amounted to 70 nM. Besides, in data set [4], the inhibition in vivo at 0.1 µmol/kg is 83%.
